Data set [1] is described as follows: Physical stability of peptide analogues (Thioflavin T fibrillation). To be noted: maximum ThT signal normalized between hAMY maximum and buffer background; 40° C., shaking, four days; pH 7 per table title. The class given is physicochemical. In outline:
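ThT fluorescence (450 nm excitation, 480 nm emission; 4 μM dye) was read every 10 min over four days at 40° C under 700 rpm shaking stress, after 1 h in pH 4 acetate or pH 7 phosphate (50 mM). Peak smoothed signal expressed as percent, scaled between buffer background and hAMY maximum.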

A further data set deals with T1, hAMY3 receptor (Homo sapiens, UniProt O60896+P30988).
T1 sequence (P30988 25-474): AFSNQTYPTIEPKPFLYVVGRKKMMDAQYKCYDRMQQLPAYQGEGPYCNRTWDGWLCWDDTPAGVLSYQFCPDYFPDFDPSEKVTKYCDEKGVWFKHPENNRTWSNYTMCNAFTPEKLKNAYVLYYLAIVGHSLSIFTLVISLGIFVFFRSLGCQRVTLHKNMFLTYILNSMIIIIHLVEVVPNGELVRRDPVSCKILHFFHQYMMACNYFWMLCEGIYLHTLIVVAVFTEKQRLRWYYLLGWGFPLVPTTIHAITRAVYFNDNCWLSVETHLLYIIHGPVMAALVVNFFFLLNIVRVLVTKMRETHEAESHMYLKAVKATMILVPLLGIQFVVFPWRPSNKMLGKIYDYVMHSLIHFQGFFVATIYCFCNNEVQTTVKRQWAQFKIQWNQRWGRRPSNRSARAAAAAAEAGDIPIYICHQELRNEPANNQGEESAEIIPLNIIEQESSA
T1 sequence (O60896 24-148 partner): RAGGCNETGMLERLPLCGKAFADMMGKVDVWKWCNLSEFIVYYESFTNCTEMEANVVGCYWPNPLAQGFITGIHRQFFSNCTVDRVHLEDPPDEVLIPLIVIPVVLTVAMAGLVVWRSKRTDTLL
The data set can be described thus: cAMP assay for in vitro receptor activation, hAMY3-R. The class given is cell-based. Particulars: cAMP assay, hAMY3 receptor; read-out: hAMY3R EC50. Put shortly:
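Receptor activation was measured as cAMP accumulation in a monoclonal cell line stably overexpressing hAMY3. Stimulation with graded doses lasted 30 min at room temperature in the presence of 0.5 mM IBMX, with human amylin as positive control.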
Background: cAMP levels reflect the balance of adenylyl cyclase and phosphodiesterase activity.

The target in another data set is hAM1 receptor (Homo sapiens, UniProt O60895+Q16602). The data set is described as follows: cAMP assay for in vitro receptor activation, hAM1-R. It is filed as cell-based. To be noted: cAMP assay, hAM1 receptor; read-out: hAM1R EC50. Put shortly:
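Receptor activation, read as cAMP, was assessed in thawed cells of a monoclonal hAM1-overexpressing stable line, plated at 8000 cells/well in DPBS supplemented with 0.05% casein and 0.5 mM IBMX.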

Bridge positions count the residues as written; N and C are the ends. Square brackets hold non-standard residues; d marks the D form. Peptide text beside a SMILES is read from it. Hyp = O=C(O)[C@@H]1C[C@@H](O)CN1

Sequence of hAM1 receptor (Q16602 23-461): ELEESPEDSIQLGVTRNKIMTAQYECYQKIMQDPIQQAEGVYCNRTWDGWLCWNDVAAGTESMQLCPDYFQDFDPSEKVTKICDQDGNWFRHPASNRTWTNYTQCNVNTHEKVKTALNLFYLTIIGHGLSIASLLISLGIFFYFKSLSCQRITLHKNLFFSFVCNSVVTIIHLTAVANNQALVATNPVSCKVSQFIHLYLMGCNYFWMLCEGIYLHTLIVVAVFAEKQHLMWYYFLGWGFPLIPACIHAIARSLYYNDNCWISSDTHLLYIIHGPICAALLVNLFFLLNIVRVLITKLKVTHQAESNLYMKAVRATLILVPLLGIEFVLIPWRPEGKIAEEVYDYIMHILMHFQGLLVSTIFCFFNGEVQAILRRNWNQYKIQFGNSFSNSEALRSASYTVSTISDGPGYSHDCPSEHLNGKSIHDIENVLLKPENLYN
Sequence of hAM1 receptor (O60895 43-175 partner): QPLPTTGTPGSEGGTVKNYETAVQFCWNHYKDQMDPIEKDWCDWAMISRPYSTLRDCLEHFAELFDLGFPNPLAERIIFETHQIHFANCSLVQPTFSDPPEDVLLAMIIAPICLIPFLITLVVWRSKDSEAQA

Broadly, the EC50 is the concentration at which the effect is half-maximal. For the molecule `CC[C@H](C)[C@H](NC(=O)[C@H](CCC(N)=O)NC(=O)[C@H](Cc1c[nH]cn1)NC(=O)[C@H](C)NC(=O)[C@H](CC(C)C)NC(=O)[C@H](Cc1c[nH]c2ccccc12)NC(=O)[C@H](CCC(N)=O)NC(=O)[C@@H](NC(=O)[C@@H](NC(=O)[C@@H]1CSSC[C@H](NC(=O)CN)C(=O)N[C@@H](CCCNC(=N)N)C(=O)N[C@@H]([C@@H](C)O)C(=O)NCC(=O)N[C@@H]([C@@H](C)O)C(=O)N1)[C@@H](C)O)C(C)C)C(=O)N[C@@H](Cc1ccc(O)cc1)C(=O)N[C@@H](CCC(N)=O)C(=O)N[C@@H](Cc1ccccc1)C(=O)N[C@H](C(=O)N[C@@H](CC(=O)O)C(=O)N[C@@H](CCCCN)C(=O)N[C@@H](CC(=O)O)C(=O)N[C@@H](CCCCN)C(=O)N[C@@H](CC(=O)O)C(=O)N[C@@H](CC(N)=O)C(=O)N[C@H](C(=O)N[C@@H](C)C(=O)N1CCC[C@H]1C(=O)N[C@@H](CCCNC(=N)N)C(=O)N[C@H](C(=O)N[C@@H](CC(N)=O)C(=O)N[C@H](C(=O)NCC(=O)N1CCC[C@H]1C(=O)N[C@@H](CCC(N)=O)C(=O)NCC(=O)N[C@@H](Cc1ccc(O)cc1)C(N)=O)C(C)C)[C@@H](C)O)C(C)C)[C@@H](C)O` [compound 335] (H-GCRTGTCTVQWLAHQIYQFTDKDKDNVAPRTNVGPQGY-NH2; disulfide 2-7; N-terminus assumed), the “Max ThT signal (%)” value in data set [1] is recorded as 1.600%. In addition, the half-maximal effective concentration (EC50) on hAMY3 receptor was 0.015 nM; on hAM1 receptor it was greater than 5000 nM.

For the molecule `CC[C@H](C)[C@H](NC(=O)[C@H](CCCCN)NC(=O)[C@@H](NC(=O)[C@H](CCCNC(=N)N)NC(=O)[C@@H]1CCCN1C(=O)[C@H](C)NC(=O)[C@@H](NC(=O)[C@H](CC(N)=O)NC(=O)[C@H](CC(=O)O)NC(=O)[C@H](CCCCN)NC(=O)[C@H](CC(=O)O)NC(=O)[C@H](CCCCN)NC(=O)[C@H](CC(=O)O)NC(=O)[C@@H](NC(=O)[C@H](Cc1ccccc1)NC(=O)[C@H](CCC(N)=O)NC(=O)[C@H](Cc1ccc(O)cc1)NC(=O)[C@@H](NC(=O)[C@H](CCC(N)=O)NC(=O)[C@H](Cc1c[nH]cn1)NC(=O)[C@H](C)NC(=O)[C@H](CC(C)C)NC(=O)[C@H](Cc1c[nH]c2ccccc12)NC(=O)[C@H](CCC(N)=O)NC(=O)[C@@H](NC(=O)[C@@H](NC(=O)[C@@H]1CSSC[C@H](NC(=O)CN)C(=O)N[C@@H](CCCNC(=N)N)C(=O)N[C@@H]([C@@H](C)O)C(=O)NCC(=O)N[C@@H]([C@@H](C)O)C(=O)N1)[C@@H](C)O)C(C)C)[C@@H](C)CC)[C@@H](C)O)C(C)C)[C@@H](C)O)C(=O)NCC(=O)N1CCC[C@H]1C(=O)N[C@@H](CC(N)=O)C(=O)NCC(=O)N1C[C@H](O)C[C@H]1C(N)=O` [compound 339] (H-GCRTGTCTVQWLAHQIYQFTDKDKDNVAPRTKIGPNG[Hyp]-NH2; disulfide 2-7; N-terminus assumed), in data set [1], the “Max ThT signal (%)” value was 20.050%. Besides, the EC50 on hAMY3 receptor was 0.047 nM; on hAM1 receptor, greater than 5000 nM.

Regarding `CC[C@H](C)[C@H](NC(=O)[C@H](CC(N)=O)NC(=O)[C@@H](NC(=O)[C@H](CCCNC(=N)N)NC(=O)[C@@H]1CCCN1C(=O)[C@H](C)NC(=O)[C@@H](NC(=O)[C@H](CC(N)=O)NC(=O)[C@H](CC(=O)O)NC(=O)[C@H](CCCCN)NC(=O)[C@H](CC(=O)O)NC(=O)[C@H](CCCCN)NC(=O)[C@H](CC(=O)O)NC(=O)[C@@H](NC(=O)[C@H](Cc1ccccc1)NC(=O)[C@H](CCC(N)=O)NC(=O)[C@H](Cc1ccc(O)cc1)NC(=O)[C@@H](NC(=O)[C@H](CCC(N)=O)NC(=O)[C@H](Cc1c[nH]cn1)NC(=O)[C@H](C)NC(=O)[C@H](CC(C)C)NC(=O)[C@H](Cc1c[nH]c2ccccc12)NC(=O)[C@H](CCC(N)=O)NC(=O)[C@@H](NC(=O)[C@@H](NC(=O)[C@@H]1CSSC[C@H](NC(=O)CN)C(=O)N[C@@H](CCCNC(=N)N)C(=O)N[C@@H]([C@@H](C)O)C(=O)NCC(=O)N[C@@H]([C@@H](C)O)C(=O)N1)[C@@H](C)O)C(C)C)[C@@H](C)CC)[C@@H](C)O)C(C)C)[C@@H](C)O)C(=O)NCC(=O)N1CCC[C@H]1C(=O)N[C@@H](CCC(N)=O)C(=O)NCC(=O)N1C[C@H](O)C[C@H]1C(N)=O` [compound 341] (H-GCRTGTCTVQWLAHQIYQFTDKDKDNVAPRTNIGPQG[Hyp]-NH2; disulfide 2-7; N-terminus assumed), in data set [1], the “Max ThT signal (%)” value worked out at 20.500%. In addition, the EC50 on hAMY3 receptor is 0.029 nM; on hAM1 receptor, greater than 5000 nM.

`CC[C@H](C)[C@H](NC(=O)[C@H](CCC(N)=O)NC(=O)[C@H](Cc1c[nH]cn1)NC(=O)[C@H](C)NC(=O)[C@H](CC(C)C)NC(=O)[C@H](Cc1c[nH]c2ccccc12)NC(=O)[C@H](CCC(N)=O)NC(=O)[C@@H](NC(=O)[C@@H](NC(=O)[C@@H]1CSSC[C@H](NC(=O)CN)C(=O)N[C@@H](CCCNC(=N)N)C(=O)N[C@@H]([C@@H](C)O)C(=O)NCC(=O)N[C@@H]([C@@H](C)O)C(=O)N1)[C@@H](C)O)C(C)C)C(=O)N[C@@H](Cc1ccc(O)cc1)C(=O)N[C@@H](CCC(N)=O)C(=O)N[C@@H](Cc1ccccc1)C(=O)N[C@H](C(=O)N[C@@H](CC(=O)O)C(=O)N[C@@H](CCCCN)C(=O)N[C@@H](CC(=O)O)C(=O)N[C@@H](CCCCN)C(=O)N[C@@H](CC(=O)O)C(=O)N[C@@H](CC(N)=O)C(=O)N[C@H](C(=O)N[C@@H](C)C(=O)N1CCC[C@H]1C(=O)N[C@@H](CCCNC(=N)N)C(=O)N[C@@H](CO)C(=O)N[C@@H](CC(N)=O)C(=O)N[C@H](C(=O)NCC(=O)N1CCC[C@H]1C(=O)N[C@@H](CCC(N)=O)C(=O)NCC(=O)N1C[C@H](O)C[C@H]1C(N)=O)C(C)C)C(C)C)[C@@H](C)O` [compound 342] (H-GCRTGTCTVQWLAHQIYQFTDKDKDNVAPRSNVGPQG[Hyp]-NH2; disulfide 2-7): in data set [1], the “Max ThT signal (%)” value was 19.800%. Further, the EC50 on hAMY3 receptor is 0.054 nM; at hAM1 receptor it was greater than 5000 nM.

Turning to `CC[C@H](C)[C@H](NC(=O)[C@H](CCC(N)=O)NC(=O)[C@H](Cc1c[nH]cn1)NC(=O)[C@H](C)NC(=O)[C@H](CC(C)C)NC(=O)[C@H](Cc1c[nH]c2ccccc12)NC(=O)[C@H](CCC(N)=O)NC(=O)[C@@H](NC(=O)[C@@H](NC(=O)[C@@H]1CSSC[C@H](NC(=O)CN)C(=O)N[C@@H](CCCNC(=N)N)C(=O)N[C@@H]([C@@H](C)O)C(=O)NCC(=O)N[C@@H]([C@@H](C)O)C(=O)N1)[C@@H](C)O)C(C)C)C(=O)N[C@@H](Cc1ccc(O)cc1)C(=O)N[C@@H](CCC(N)=O)C(=O)N[C@@H](Cc1ccccc1)C(=O)N[C@H](C(=O)N[C@@H](CC(=O)O)C(=O)N[C@@H](CCCCN)C(=O)N[C@@H](CC(=O)O)C(=O)N[C@@H](CCCCN)C(=O)N[C@@H](CC(=O)O)C(=O)N[C@@H](CC(N)=O)C(=O)N[C@H](C(=O)N[C@@H](C)C(=O)N1CCC[C@H]1C(=O)N[C@@H](CCCNC(=N)N)C(=O)N[C@@H](CO)C(=O)N[C@@H](CC(N)=O)C(=O)N[C@H](C(=O)NCC(=O)N1CCC[C@H]1C(=O)N[C@@H](CCC(N)=O)C(=O)NCC(=O)N[C@@H](Cc1ccc(O)cc1)C(N)=O)C(C)C)C(C)C)[C@@H](C)O` [compound 346] (H-GCRTGTCTVQWLAHQIYQFTDKDKDNVAPRSNVGPQGY-NH2; disulfide 2-7; N-terminus assumed), in data set [1], the “Max ThT signal (%)” value turned out to be 1.200%. The EC50 is 0.085 nM at hAMY3 receptor and greater than 5000 nM on hAM1 receptor.

On to `CC[C@H](C)[C@H](NC(=O)[C@H](CCC(N)=O)NC(=O)[C@H](Cc1c[nH]cn1)NC(=O)[C@H](C)NC(=O)[C@H](CC(C)C)NC(=O)[C@H](Cc1c[nH]c2ccccc12)NC(=O)[C@H](CCC(N)=O)NC(=O)[C@@H](NC(=O)[C@@H](NC(=O)[C@@H]1CSSC[C@H](NC(=O)CN)C(=O)N[C@@H](CCCNC(=N)N)C(=O)N[C@@H]([C@@H](C)O)C(=O)NCC(=O)N[C@@H]([C@@H](C)O)C(=O)N1)[C@@H](C)O)C(C)C)C(=O)N[C@@H](Cc1ccc(O)cc1)C(=O)N[C@@H](CCC(N)=O)C(=O)N[C@@H](Cc1ccccc1)C(=O)N[C@H](C(=O)N[C@@H](CC(=O)O)C(=O)N[C@@H](CCCCN)C(=O)N[C@@H](CC(=O)O)C(=O)N[C@@H](CCCCN)C(=O)N[C@@H](CC(=O)O)C(=O)N[C@@H](CC(N)=O)C(=O)N[C@H](C(=O)N[C@@H](C)C(=O)N1CCC[C@H]1C(=O)N[C@@H](CCCNC(=N)N)C(=O)N[C@@H](CO)C(=O)N[C@@H](CCCCN)C(=O)N[C@H](C(=O)NCC(=O)N1CCC[C@H]1C(=O)N[C@@H](CC(N)=O)C(=O)NCC(=O)N1C[C@H](O)C[C@H]1C(N)=O)C(C)C)C(C)C)[C@@H](C)O` [compound 347] (H-GCRTGTCTVQWLAHQIYQFTDKDKDNVAPRSKVGPNG[Hyp]-NH2; disulfide 2-7; N-terminus assumed), for which, in data set [1], the “Max ThT signal (%)” value stood at 15.500%. Further, the half-maximal effective concentration (EC50) was 0.068 nM on hAMY3 receptor and greater than 5000 nM at hAM1 receptor.

For the origin of these results see patent publication US12139520B2 (priority 2020, dated 2024).
